Data reported in a compilation of properties of binary mixtures (doi:10.1016/j.molliq.2020.112644).

Assay: xn = mol fraction of the nth substance listed
Details: 100 kPa, x2 = 0.571

O=C1c2ccccc2C(=O)C1(O)O + CCCC[N+](CCCC)(CCCC)CCCC.O=S(=O)([O-])O
Details | electrical conductivity [S/m] | speed of sound [m/s] | viscosity [mPa·s]
293.15 K | – | 2074.6 | –
298.15 K | – | 2026.2 | –
303.15 K | – | 1974.8 | –
308.15 K | 0.0001 | 1920.7 | –
313.15 K | 0.0002 | 1859 | –
318.15 K | 0.0003 | 1802.5 | –
323.15 K | 0.0006 | 1740.4 | 48000
333.15 K | 0.0018 | 1629.2 | 15800
338.15 K | – | – | 11000
